From PubChem BioAssay AID256 (DTP/NCI, 2004)
Several values for one entry are separate records, joined by “and”; a condition that tells them apart may be missing. Equal entries are not always repeated. Toxic doses and inconclusive results are not listed. How the source made its calls: active means survival T/C of 150% or more; inactive means T/C below 125% in these data.

Test system: CD2F1 mice, L1210 leukemia ip, survival T/C
Assay: NCI In Vivo Anticancer Drug Screen. Data for tumor model L1210 Leukemia (intraperitoneal) in CD2F1 (CDF1) mice
Settings: higher = longer survival
In short: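 Mice carrying a transplanted tumor received test compound or vehicle alone. The value is the measurement in the treated group divided by that in the vehicle-treated control group.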

Measured: T/C

Cc1[nH]c(=O)[nH]c(=O)c1N(CCF)CCCl
inactive: endpoint: mean survival time, dose: 1.8 mg/kg/injection, schedule: Q01DX009 (ip), vehicle: saline 98 % of control | endpoint: mean survival time, dose: 3.0 mg/kg/injection, schedule: Q01DX009 (ip), vehicle: saline 102 % of control | endpoint: mean survival time, dose: 5.0 mg/kg/injection, schedule: Q01DX009 (ip), vehicle: saline 104 % of control | endpoint: mean survival time, dose: 8.0 mg/kg/injection, schedule: Q01DX001 (ip), vehicle: acid diluted with saline 95 % of control and 102 % of control | endpoint: mean survival time, dose: 8.0 mg/kg/injection, schedule: Q01DX001 (ip), vehicle: saline 98 % of control | endpoint: mean survival time, dose: 8.4 mg/kg/injection, schedule: Q01DX009 (ip), vehicle: saline 106 % of control | endpoint: mean survival time, dose: 8.4 mg/kg/injection, schedule: Q04DX003 (ip), vehicle: saline 108 % of control | endpoint: mean survival time, dose: 14.0 mg/kg/injection, schedule: Q01DX009 (ip), vehicle: saline 113 % of control | endpoint: mean survival time, dose: 14.0 mg/kg/injection, schedule: Q04DX003 (ip), vehicle: saline 105 % of control | endpoint: mean survival time, dose: 16.0 mg/kg/injection, schedule: Q01DX001 (ip), vehicle: acid diluted with saline 97 % of control and 100 % of control | endpoint: mean survival time, dose: 16.0 mg/kg/injection, schedule: Q01DX001 (ip), vehicle: saline 94 % of control and 100 % of control | endpoint: mean survival time, dose: 23.0 mg/kg/injection, schedule: Q01DX001 (ip), vehicle: saline 117 % of control | endpoint: mean survival time, dose: 23.0 mg/kg/injection, schedule: Q01DX009 (ip), vehicle: saline 107 % of control | endpoint: mean survival time, dose: 23.0 mg/kg/injection, schedule: Q04DX003 (ip), vehicle: saline 114 % of control | endpoint: mean survival time, dose: 32.0 mg/kg/injection, schedule: Q01DX001 (ip), vehicle: acid diluted with saline 96 % of control and 102 % of control | endpoint: mean survival time, dose: 32.0 mg/kg/injection, schedule: Q01DX001 (ip), vehicle: saline 105 % of control and 109 % of control | endpoint: mean survival time, dose: 39.0 mg/kg/injection, schedule: Q01DX001 (ip), vehicle: saline 117 % of control | endpoint: mean survival time, dose: 64.0 mg/kg/injection, schedule: Q01DX001 (ip), vehicle: acid diluted with saline 107 % of control and 110 % of control | endpoint: mean survival time, dose: 64.0 mg/kg/injection, schedule: Q01DX001 (ip), vehicle: saline 115 % of control and 120 % of control | endpoint: mean survival time, dose: 65.0 mg/kg/injection, schedule: Q01DX001 (ip), vehicle: saline 123 % of control | endpoint: median survival time, dose: 0.5 mg/kg/injection, schedule: Q03HX024 (ip), vehicle: acid diluted with saline 107 % of control | endpoint: median survival time, dose: 1.0 mg/kg/injection, schedule: Q03HX016 (ip), vehicle: acid diluted with saline 98 % of control | endpoint: median survival time, dose: 1.0 mg/kg/injection, schedule: Q03HX024 (ip), vehicle: acid diluted with saline 105 % of control | endpoint: median survival time, dose: 2.0 mg/kg/injection, schedule: Q01DX009 (ip), vehicle: acid diluted with saline 107 % of control | endpoint: median survival time, dose: 2.0 mg/kg/injection, schedule: Q03HX008 (ip), vehicle: acid diluted with saline 96 % of control | endpoint: median survival time, dose: 2.0 mg/kg/injection, schedule: Q03HX016 (ip), vehicle: acid diluted with saline 100 % of control | endpoint: median survival time, dose: 2.0 mg/kg/injection, schedule: Q03HX024 (ip), vehicle: acid diluted with saline 108 % of control | endpoint: median survival time, dose: 2.0 mg/kg/injection, schedule: Q03HX024 (oral), vehicle: acid diluted with saline 100 % of control | endpoint: median survival time, dose: 4.0 mg/kg/injection, schedule: Q01DX009 (ip), vehicle: acid diluted with saline 117 % of control | endpoint: median survival time, dose: 4.0 mg/kg/injection, schedule: Q01DX009 (sc), vehicle: acid diluted with saline 104 % of control | endpoint: median survival time, dose: 4.0 mg/kg/injection, schedule: Q03HX008 (ip), vehicle: acid diluted with saline 96 % of control | endpoint: median survival time, dose: 4.0 mg/kg/injection, schedule: Q03HX016 (ip), vehicle: acid diluted with saline 111 % of control | endpoint: median survival time, dose: 4.0 mg/kg/injection, schedule: Q03HX024 (ip), vehicle: acid diluted with saline 105 % of control | endpoint: median survival time, dose: 4.0 mg/kg/injection, schedule: Q03HX024 (oral), vehicle: acid diluted with saline 100 % of control | endpoint: median survival time, dose: 4.0 mg/kg/injection, schedule: Q04DX003 (ip), vehicle: acid diluted with saline 96 % of control | endpoint: median survival time, dose: 8.0 mg/kg/injection, schedule: Q01DX009 (ip), vehicle: acid diluted with saline 108 % of control | endpoint: median survival time, dose: 8.0 mg/kg/injection, schedule: Q01DX009 (oral), vehicle: acid diluted with saline 100 % of control | endpoint: median survival time, dose: 8.0 mg/kg/injection, schedule: Q01DX009 (sc), vehicle: acid diluted with saline 100 % of control | endpoint: median survival time, dose: 8.0 mg/kg/injection, schedule: Q03HX008 (ip), vehicle: acid diluted with saline 100 % of control | endpoint: median survival time, dose: 8.0 mg/kg/injection, schedule: Q03HX008 (oral), vehicle: acid diluted with saline 106 % of control | endpoint: median survival time, dose: 8.0 mg/kg/injection, schedule: Q03HX016 (ip), vehicle: acid diluted with saline 97 % of control | endpoint: median survival time, dose: 8.0 mg/kg/injection, schedule: Q03HX016 (oral), vehicle: acid diluted with saline 100 % of control | endpoint: median survival time, dose: 8.0 mg/kg/injection, schedule: Q03HX024 (ip), vehicle: acid diluted with saline 108 % of control | endpoint: median survival time, dose: 8.0 mg/kg/injection, schedule: Q03HX024 (oral), vehicle: acid diluted with saline 100 % of control | endpoint: median survival time, dose: 8.0 mg/kg/injection, schedule: Q04DX003 (ip), vehicle: acid diluted with saline 100 % of control | endpoint: median survival time, dose: 8.0 mg/kg/injection, schedule: Q08DX002 (ip), vehicle: acid diluted with saline 100 % of control | endpoint: median survival time, dose: 16.0 mg/kg/injection, schedule: Q01DX001 (ip), vehicle: acid diluted with saline 98 % of control | endpoint: median survival time, dose: 16.0 mg/kg/injection, schedule: Q01DX001 (sc), vehicle: acid diluted with saline 98 % of control | endpoint: median survival time, dose: 16.0 mg/kg/injection, schedule: Q01DX009 (ip), vehicle: acid diluted with saline 120 % of control | endpoint: median survival time, dose: 16.0 mg/kg/injection, schedule: Q01DX009 (oral), vehicle: acid diluted with saline 106 % of control | endpoint: median survival time, dose: 16.0 mg/kg/injection, schedule: Q01DX009 (sc), vehicle: acid diluted with saline 104 % of control | endpoint: median survival time, dose: 16.0 mg/kg/injection, schedule: Q03HX008 (ip), vehicle: acid diluted with saline 96 % of control | endpoint: median survival time, dose: 16.0 mg/kg/injection, schedule: Q03HX008 (oral), vehicle: acid diluted with saline 112 % of control | endpoint: median survival time, dose: 16.0 mg/kg/injection, schedule: Q03HX016 (ip), vehicle: acid diluted with saline 102 % of control | endpoint: median survival time, dose: 16.0 mg/kg/injection, schedule: Q03HX016 (oral), vehicle: acid diluted with saline 112 % of control | endpoint: median survival time, dose: 16.0 mg/kg/injection, schedule: Q03HX024 (oral), vehicle: acid diluted with saline 112 % of control | endpoint: median survival time, dose: 16.0 mg/kg/injection, schedule: Q04DX003 (ip), vehicle: acid diluted with saline 108 % of control | endpoint: median survival time, dose: 16.0 mg/kg/injection, schedule: Q04DX003 (oral), vehicle: acid diluted with saline 106 % of control | endpoint: median survival time, dose: 16.0 mg/kg/injection, schedule: Q08DX002 (ip), vehicle: acid diluted with saline 105 % of control | endpoint: median survival time, dose: 32.0 mg/kg/injection, schedule: Q01DX001 (ip), vehicle: acid diluted with saline 98 % of control | endpoint: median survival time, dose: 32.0 mg/kg/injection, schedule: Q01DX001 (sc), vehicle: acid diluted with saline 100 % of control | endpoint: median survival time, dose: 32.0 mg/kg/injection, schedule: Q01DX009 (oral), vehicle: acid diluted with saline 112 % of control | endpoint: median survival time, dose: 32.0 mg/kg/injection, schedule: Q03HX008 (ip), vehicle: acid diluted with saline 104 % of control | endpoint: median survival time, dose: 32.0 mg/kg/injection, schedule: Q04DX003 (ip), vehicle: acid diluted with saline 108 % of control | endpoint: median survival time, dose: 32.0 mg/kg/injection, schedule: Q04DX003 (oral), vehicle: acid diluted with saline 112 % of control | endpoint: median survival time, dose: 32.0 mg/kg/injection, schedule: Q08DX002 (ip), vehicle: acid diluted with saline 100 % of control | endpoint: median survival time, dose: 64.0 mg/kg/injection, schedule: Q01DX001 (ip), vehicle: acid diluted with saline 98 % of control | endpoint: median survival time, dose: 64.0 mg/kg/injection, schedule: Q01DX001 (oral), vehicle: acid diluted with saline 112 % of control | endpoint: median survival time, dose: 64.0 mg/kg/injection, schedule: Q01DX001 (sc), vehicle: acid diluted with saline 100 % of control | endpoint: median survival time, dose: 64.0 mg/kg/injection, schedule: Q01DX009 (oral), vehicle: acid diluted with saline 112 % of control | endpoint: median survival time, dose: 64.0 mg/kg/injection, schedule: Q04DX003 (ip), vehicle: acid diluted with saline 90 % of control | endpoint: median survival time, dose: 64.0 mg/kg/injection, schedule: Q04DX003 (oral), vehicle: acid diluted with saline 112 % of control | endpoint: median survival time, dose: 64.0 mg/kg/injection, schedule: Q08DX002 (ip), vehicle: acid diluted with saline 98 % of control | endpoint: median survival time, dose: 64.0 mg/kg/injection, schedule: Q08DX002 (oral), vehicle: acid diluted with saline 112 % of control | endpoint: median survival time, dose: 128.0 mg/kg/injection, schedule: Q01DX001 (oral), vehicle: acid diluted with saline 100 % of control | endpoint: median survival time, dose: 128.0 mg/kg/injection, schedule: Q01DX001 (sc), vehicle: acid diluted with saline 100 % of control | endpoint: median survival time, dose: 128.0 mg/kg/injection, schedule: Q04DX003 (oral), vehicle: acid diluted with saline 112 % of control | endpoint: median survival time, dose: 128.0 mg/kg/injection, schedule: Q08DX002 (oral), vehicle: acid diluted with saline 106 % of control | endpoint: median survival time, dose: 256.0 mg/kg/injection, schedule: Q01DX001 (oral), vehicle: acid diluted with saline 100 % of control | endpoint: median survival time, dose: 256.0 mg/kg/injection, schedule: Q01DX001 (sc), vehicle: acid diluted with saline 105 % of control | endpoint: median survival time, dose: 256.0 mg/kg/injection, schedule: Q04DX003 (oral), vehicle: acid diluted with saline 112 % of control | endpoint: median survival time, dose: 256.0 mg/kg/injection, schedule: Q08DX002 (oral), vehicle: acid diluted with saline 100 % of control | endpoint: median survival time, dose: 512.0 mg/kg/injection, schedule: Q01DX001 (oral), vehicle: acid diluted with saline 112 % of control
